Experimental data taken from ChEMBL document CHEMBL5532744, “2-Aminopyridines as Potent and Selective Nav1.8 Inhibitors Exhibiting Efficacy in a Nonhuman Primate Pain Model” (ACS Med Chem Lett, 2024).
≈ marks a conversion by molar mass, not a printed value.

How the values were obtained:
[1] = target: Sodium channel protein type 10 subunit alpha (Rattus norvegicus, UniProt Q62968); assay: Inhibition of rat neuronal Nav1.8 by patch clamp electrophysiology
[2] = target: Sodium channel protein type 5 subunit alpha (Homo sapiens, UniProt Q14524); assay: Inhibition of Nav1.5 (unknown origin)
[3] = target: Sodium channel protein type 9 subunit alpha (Homo sapiens, UniProt Q15858); assay: Inhibition of Nav1.7 (unknown origin)
[4] = target: Sodium channel protein type 8 subunit alpha (Homo sapiens, UniProt Q9UQD0); assay: Inhibition of Nav1.6 (unknown origin)
[5] = target: Sodium channel protein type 10 subunit alpha (Homo sapiens, UniProt Q9Y5Y9); assay: Inhibition of recombinant human Nav1.8 expressed in HEK293 cells by whole cell patch clamp method; assay type: cell-based
[6] = Solubility of the compound at pH 7; assay type: physicochemical; conditions: buffer
[7] = Half-life in rat plasma at 0.05 mg/kg, iv administered as cassette dose; assay type: ADME, organism-based
[8] = Unbound clearance in rat at 0.05 mg/kg, iv administered as cassette dose; assay type: ADME, organism-based; conditions: in vivo
[9] = target: Voltage-gated inwardly rectifying potassium channel KCNH2 (Homo sapiens, UniProt Q12809); assay: Inhibition of hERG; assay type: toxicity
[10] = Drug concentration in rhesus monkey plasma at 18 mg/kg, po; assay type: ADME, organism-based, Macaca mulatta; conditions: in vivo
[11] = Unbound clearance in rat at 10 mg/kg, po; assay type: ADME, organism-based; conditions: in vivo
[12] = Clearance in rat at 2 mg/kg, iv; assay type: ADME, organism-based; conditions: in vivo
[13] = Unbound clearance in rhesus monkey at 2 mg/kg, po; assay type: ADME, organism-based, Macaca mulatta; conditions: in vivo
[14] = Unbound volume of distribution in rat at 10 mg/kg, po; assay type: ADME, organism-based; conditions: in vivo
[15] = Drug concentration in rhesus monkey plasma at 6 mg/kg, po; assay type: ADME, organism-based, Macaca mulatta; conditions: in vivo
[16] = Tmax in rat at 10 mg/kg, po or 2 mg/kg, iv; assay type: ADME, organism-based; conditions: in vivo
[17] = Tmax in rhesus monkey at 2 mg/kg, po or 1 mg/kg, iv; assay type: ADME, organism-based, Macaca mulatta; conditions: in vivo
[18] = Unbound drug concentration in rhesus monkey plasma at 2 mg/kg, po; assay type: ADME, organism-based, Macaca mulatta; conditions: in vivo
[19] = target: Voltage-dependent L-type calcium channel subunit alpha-1C (Homo sapiens, UniProt Q13936); assay: Inhibition of Cav1.2 (unknown origin)
[20] = Half life in rhesus monkey at 2 mg/kg, po or 1 mg/kg, iv; assay type: ADME, organism-based, Macaca mulatta; conditions: in vivo
[21] = Bioavailability in rat at 10 mg/kg, po or 2 mg/kg, iv; assay type: ADME, organism-based; conditions: in vivo
[22] = Unbound clearance in dog at 2 mg/kg, po; assay type: ADME, organism-based, Canis lupus familiaris; conditions: in vivo
[23] = Half life in dog at 2 mg/kg, po or 1 mg/kg, iv; assay type: ADME, organism-based, Canis lupus familiaris; conditions: in vivo
[24] = Clearance in rhesus monkey at 1 mg/kg, iv; assay type: ADME, organism-based, Macaca mulatta; conditions: in vivo
[25] = Drug concentration in rhesus monkey plasma at 2 mg/kg, po; assay type: ADME, organism-based, Macaca mulatta; conditions: in vivo
[26] = Unbound volume of distribution in rhesus monkey at 2 mg/kg, po; assay type: ADME, organism-based, Macaca mulatta; conditions: in vivo
[27] = Unbound drug concentration in rhesus monkey plasma at 18 mg/kg, po; assay type: ADME, organism-based, Macaca mulatta; conditions: in vivo
[28] = Bioavailability in rhesus monkey at 2 mg/kg, po or 1 mg/kg, iv; assay type: ADME, organism-based, Macaca mulatta; conditions: in vivo
[29] = Bioavailability in dog at 2 mg/kg, po or 1 mg/kg, iv; assay type: ADME, organism-based, Canis lupus familiaris; conditions: in vivo
[30] = Volume of distribution in dog at 1 mg/kg, iv; assay type: ADME, organism-based, Canis lupus familiaris; conditions: in vivo
[31] = Unbound drug concentration in rhesus monkey plasma at 6 mg/kg, po; assay type: ADME, organism-based, Macaca mulatta; conditions: in vivo
[32] = Apparent permeability of compound; assay type: ADME; conditions: not told
[33] = Half life in rat at 10 mg/kg, po or 2 mg/kg, iv; assay type: ADME, organism-based; conditions: in vivo
[34] = Clearance in dog at 1 mg/kg, iv; assay type: ADME, organism-based, Canis lupus familiaris; conditions: in vivo
[35] = Volume of distribution in rat at 2 mg/kg, iv; assay type: ADME, organism-based; conditions: in vivo
[36] = Unbound volume of distribution in dog at 2 mg/kg, po; assay type: ADME, organism-based, Canis lupus familiaris; conditions: in vivo
[37] = Volume of distribution in rhesus monkey at 1 mg/kg, iv; assay type: ADME, organism-based, Macaca mulatta; conditions: in vivo
[38] = Tmax in dog at 2 mg/kg, po or 1 mg/kg, iv; assay type: ADME, organism-based, Canis lupus familiaris; conditions: in vivo
[39] = target: Sodium channel protein type 2 subunit alpha (Homo sapiens, UniProt Q99250); assay: Inhibition of Nav1.2 (unknown origin)

Sequence of Sodium channel protein type 10 subunit alpha (Homo sapiens, UniProt Q9Y5Y9) (Q9Y5Y9 whole entry): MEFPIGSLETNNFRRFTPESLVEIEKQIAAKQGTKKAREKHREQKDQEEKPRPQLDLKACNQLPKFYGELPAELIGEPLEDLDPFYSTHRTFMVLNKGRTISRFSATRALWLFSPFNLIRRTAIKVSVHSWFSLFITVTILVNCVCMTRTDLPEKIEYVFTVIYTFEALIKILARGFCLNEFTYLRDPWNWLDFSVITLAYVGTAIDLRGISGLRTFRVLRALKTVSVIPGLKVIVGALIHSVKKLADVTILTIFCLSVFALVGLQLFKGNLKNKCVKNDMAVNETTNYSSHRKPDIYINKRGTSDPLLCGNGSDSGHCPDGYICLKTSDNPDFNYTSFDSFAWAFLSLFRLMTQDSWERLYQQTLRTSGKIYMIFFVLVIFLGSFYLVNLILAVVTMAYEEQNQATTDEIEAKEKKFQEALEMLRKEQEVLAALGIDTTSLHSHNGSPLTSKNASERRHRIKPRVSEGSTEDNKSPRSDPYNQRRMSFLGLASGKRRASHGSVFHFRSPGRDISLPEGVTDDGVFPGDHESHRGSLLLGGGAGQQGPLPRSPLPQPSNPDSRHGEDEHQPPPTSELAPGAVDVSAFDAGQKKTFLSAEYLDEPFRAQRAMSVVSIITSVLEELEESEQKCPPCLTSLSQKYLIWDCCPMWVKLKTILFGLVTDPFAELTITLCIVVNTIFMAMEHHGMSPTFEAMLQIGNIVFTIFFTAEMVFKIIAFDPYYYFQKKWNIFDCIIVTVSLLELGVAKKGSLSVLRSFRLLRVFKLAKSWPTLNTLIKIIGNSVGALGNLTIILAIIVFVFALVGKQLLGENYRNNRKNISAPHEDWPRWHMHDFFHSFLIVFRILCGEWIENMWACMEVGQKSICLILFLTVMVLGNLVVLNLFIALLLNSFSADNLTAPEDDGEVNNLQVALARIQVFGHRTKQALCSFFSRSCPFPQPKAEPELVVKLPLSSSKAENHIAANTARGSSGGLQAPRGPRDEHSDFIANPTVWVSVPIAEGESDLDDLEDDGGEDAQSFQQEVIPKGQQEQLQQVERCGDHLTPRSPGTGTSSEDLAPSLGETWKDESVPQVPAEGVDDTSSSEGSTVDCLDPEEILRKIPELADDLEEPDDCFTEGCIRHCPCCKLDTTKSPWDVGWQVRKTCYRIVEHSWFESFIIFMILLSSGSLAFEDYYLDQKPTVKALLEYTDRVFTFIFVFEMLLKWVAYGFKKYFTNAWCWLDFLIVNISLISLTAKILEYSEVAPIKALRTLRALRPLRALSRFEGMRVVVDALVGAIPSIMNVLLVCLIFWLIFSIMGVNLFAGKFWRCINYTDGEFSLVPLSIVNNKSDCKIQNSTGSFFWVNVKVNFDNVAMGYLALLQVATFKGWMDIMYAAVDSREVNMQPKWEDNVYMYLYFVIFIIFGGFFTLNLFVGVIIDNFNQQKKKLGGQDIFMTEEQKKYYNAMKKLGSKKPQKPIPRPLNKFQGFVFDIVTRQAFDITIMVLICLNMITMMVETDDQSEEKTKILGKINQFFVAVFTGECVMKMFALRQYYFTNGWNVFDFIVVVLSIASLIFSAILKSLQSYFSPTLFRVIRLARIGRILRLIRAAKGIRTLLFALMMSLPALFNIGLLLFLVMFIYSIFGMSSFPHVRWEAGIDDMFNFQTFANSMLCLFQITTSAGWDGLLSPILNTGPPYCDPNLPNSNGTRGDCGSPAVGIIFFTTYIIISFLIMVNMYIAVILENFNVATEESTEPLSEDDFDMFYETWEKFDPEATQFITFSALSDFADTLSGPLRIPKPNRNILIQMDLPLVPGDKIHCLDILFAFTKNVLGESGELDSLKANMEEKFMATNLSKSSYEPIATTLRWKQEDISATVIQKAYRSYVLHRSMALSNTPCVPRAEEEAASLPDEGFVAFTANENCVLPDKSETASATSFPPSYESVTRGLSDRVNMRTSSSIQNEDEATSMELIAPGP
Sequence of Sodium channel protein type 8 subunit alpha (Q9UQD0 whole entry): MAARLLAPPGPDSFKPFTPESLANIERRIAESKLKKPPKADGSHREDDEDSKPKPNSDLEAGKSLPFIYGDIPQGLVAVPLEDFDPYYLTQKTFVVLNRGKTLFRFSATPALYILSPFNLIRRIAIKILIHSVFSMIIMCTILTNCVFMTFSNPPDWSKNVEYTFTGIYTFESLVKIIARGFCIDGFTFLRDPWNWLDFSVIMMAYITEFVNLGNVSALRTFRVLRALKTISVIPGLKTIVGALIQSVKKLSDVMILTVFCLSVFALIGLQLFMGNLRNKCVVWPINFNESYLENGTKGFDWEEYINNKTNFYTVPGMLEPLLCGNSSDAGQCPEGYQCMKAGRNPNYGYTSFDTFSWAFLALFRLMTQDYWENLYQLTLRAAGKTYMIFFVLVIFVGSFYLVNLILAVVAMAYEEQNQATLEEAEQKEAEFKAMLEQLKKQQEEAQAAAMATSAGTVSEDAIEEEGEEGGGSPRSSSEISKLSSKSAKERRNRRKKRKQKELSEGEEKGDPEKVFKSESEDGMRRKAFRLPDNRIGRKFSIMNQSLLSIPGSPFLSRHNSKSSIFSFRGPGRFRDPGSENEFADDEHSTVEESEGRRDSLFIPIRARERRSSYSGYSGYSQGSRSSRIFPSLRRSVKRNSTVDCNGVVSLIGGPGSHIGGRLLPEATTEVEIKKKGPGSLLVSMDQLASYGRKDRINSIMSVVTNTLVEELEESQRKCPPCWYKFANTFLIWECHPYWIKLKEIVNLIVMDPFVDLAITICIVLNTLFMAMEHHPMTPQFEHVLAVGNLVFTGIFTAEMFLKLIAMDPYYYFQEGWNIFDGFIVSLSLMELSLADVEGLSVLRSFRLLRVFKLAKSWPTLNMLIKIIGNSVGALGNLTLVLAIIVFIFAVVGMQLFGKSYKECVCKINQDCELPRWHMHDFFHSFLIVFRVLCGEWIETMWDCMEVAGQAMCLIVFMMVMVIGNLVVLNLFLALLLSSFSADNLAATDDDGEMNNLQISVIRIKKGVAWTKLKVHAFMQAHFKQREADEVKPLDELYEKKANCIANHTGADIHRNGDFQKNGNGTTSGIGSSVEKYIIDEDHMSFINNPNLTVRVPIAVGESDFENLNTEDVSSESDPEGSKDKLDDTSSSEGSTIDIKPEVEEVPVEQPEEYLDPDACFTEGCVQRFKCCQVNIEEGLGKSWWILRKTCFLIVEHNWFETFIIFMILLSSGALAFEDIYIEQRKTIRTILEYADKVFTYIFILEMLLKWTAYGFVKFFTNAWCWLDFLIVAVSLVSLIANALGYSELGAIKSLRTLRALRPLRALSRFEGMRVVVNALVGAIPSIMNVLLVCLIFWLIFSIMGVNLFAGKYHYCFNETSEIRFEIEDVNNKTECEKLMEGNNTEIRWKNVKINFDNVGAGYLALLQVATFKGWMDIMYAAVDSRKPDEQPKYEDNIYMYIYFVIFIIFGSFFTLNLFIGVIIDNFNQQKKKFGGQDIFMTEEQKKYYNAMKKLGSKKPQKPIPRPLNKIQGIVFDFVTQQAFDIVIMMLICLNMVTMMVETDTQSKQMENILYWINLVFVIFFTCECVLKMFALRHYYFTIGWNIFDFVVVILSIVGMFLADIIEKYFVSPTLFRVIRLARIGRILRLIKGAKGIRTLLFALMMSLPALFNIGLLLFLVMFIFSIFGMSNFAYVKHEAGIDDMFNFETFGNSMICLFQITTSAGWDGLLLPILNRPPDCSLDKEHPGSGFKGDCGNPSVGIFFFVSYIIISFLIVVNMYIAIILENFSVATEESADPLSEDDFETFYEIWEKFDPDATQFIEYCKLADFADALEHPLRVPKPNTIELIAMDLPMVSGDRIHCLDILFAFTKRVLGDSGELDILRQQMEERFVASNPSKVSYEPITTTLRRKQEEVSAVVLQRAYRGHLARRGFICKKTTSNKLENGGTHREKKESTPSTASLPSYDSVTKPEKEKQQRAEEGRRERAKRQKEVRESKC
Sequence of Voltage-gated inwardly rectifying potassium channel KCNH2 (Q12809 whole entry): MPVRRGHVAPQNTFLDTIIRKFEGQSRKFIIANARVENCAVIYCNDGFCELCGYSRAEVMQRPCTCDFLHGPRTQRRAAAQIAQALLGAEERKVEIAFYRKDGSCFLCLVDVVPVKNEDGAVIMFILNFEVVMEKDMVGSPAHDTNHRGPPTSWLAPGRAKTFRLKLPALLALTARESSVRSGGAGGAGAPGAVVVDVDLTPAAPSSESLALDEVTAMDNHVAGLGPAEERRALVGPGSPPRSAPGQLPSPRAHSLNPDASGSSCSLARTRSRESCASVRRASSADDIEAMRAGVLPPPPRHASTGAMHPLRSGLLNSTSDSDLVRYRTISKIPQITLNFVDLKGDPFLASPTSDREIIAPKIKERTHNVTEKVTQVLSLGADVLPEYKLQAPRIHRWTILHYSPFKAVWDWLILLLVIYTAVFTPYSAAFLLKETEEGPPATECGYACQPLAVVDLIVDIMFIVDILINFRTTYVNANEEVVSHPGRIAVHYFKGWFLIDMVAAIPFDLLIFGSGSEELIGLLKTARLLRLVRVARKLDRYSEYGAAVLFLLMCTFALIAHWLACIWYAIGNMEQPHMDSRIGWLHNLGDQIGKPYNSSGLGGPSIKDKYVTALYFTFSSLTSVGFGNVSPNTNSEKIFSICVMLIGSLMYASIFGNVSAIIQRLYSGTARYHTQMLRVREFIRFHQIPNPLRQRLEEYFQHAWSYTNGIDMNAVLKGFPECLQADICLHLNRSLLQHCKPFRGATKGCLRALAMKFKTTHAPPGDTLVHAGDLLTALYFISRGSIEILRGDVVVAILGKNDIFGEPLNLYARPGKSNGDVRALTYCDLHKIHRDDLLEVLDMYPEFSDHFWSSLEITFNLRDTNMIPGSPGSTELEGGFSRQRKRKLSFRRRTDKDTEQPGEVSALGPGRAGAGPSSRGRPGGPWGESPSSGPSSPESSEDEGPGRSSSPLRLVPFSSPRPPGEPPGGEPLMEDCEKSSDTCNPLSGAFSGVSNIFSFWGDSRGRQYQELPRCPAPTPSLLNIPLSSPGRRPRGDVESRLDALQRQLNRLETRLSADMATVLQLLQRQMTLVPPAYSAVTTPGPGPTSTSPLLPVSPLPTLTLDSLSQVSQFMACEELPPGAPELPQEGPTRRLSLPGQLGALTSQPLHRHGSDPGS

In the case of `CC(C)(C)c1cc(C(=O)Nc2cccc(S(N)(=O)=O)c2)n(Cc2ccccc2)n1`, the IC50 [1] is reported as 0.08 µM, the EC50 [2] is reported as over 30 µM and the IC50 [3] is reported as over 30 µM. The EC50 [4] was over 30 µM.
Compound `Cc1ccc(C(=O)Nc2cccc(S(N)(=O)=O)c2)c(N2CCCCC2)n1` has an EC50 [5] of 0.86 µM, a solubility [6] of 58 µM (≈ 21.7 µg/mL) and a half-life [7] of 0.55 h. It also gave a CL free [8] of 1100 mL/min/kg.
For `NS(=O)(=O)c1cccc(NC(=O)c2cc(C(F)(F)F)cnc2N2CCC(F)(F)CC2)c1`, the IC50 [9] was over 30 µM, the concentration [10] was 18600 nM and the CL free [11] was 100 mL/min/kg. It also gave an EC50 [2] of over 30 µM, a clearance [12] of 7.1 mL/min/kg and a CL free [13] of 62 mL/min/kg. The EC50 [5] was 0.042 µM, the Vdu [14] was 19 L/kg and the concentration [15] was 6110 nM. For the same compound, the Tmax [16] was 2.5 h, the Tmax [17] was 2.5 h and the solubility [6] was 150 µM (≈ 69.7 µg/mL). The “Cp(f)” value [18] was 111 nM, the IC50 [19] was 27 µM and the half-life [20] was 6.6 h. The bioavailability [21] was 82%, the CL free [22] was 40 mL/min/kg and the half-life [7] was 3.3 h. For the same compound, the half-life [23] was 8.8 h, the clearance [24] was 3.15 mL/min/kg and the concentration [25] was 2180 nM. The Vdu [26] was 33 L/kg, the “Cp(f)” value [27] was 948 nM and the bioavailability [28] was 77%. The bioavailability [29] was 45%, the Vd [30] was 0.73 L/kg and the “Cp(f)” value [31] was 312 nM. It also gave a Papp [32] of 28 ×10⁻⁶ cm/s, a half-life [33] of 2.2 h and a clearance [34] of 0.96 mL/min/kg. It also gave a CL free [8] of 100 mL/min/kg, an EC50 [4] of over 30 µM and a Vd [35] of 1.3 L/kg. For the same compound, the Vdu [36] was 30 L/kg, the Vd [37] was 1.68 L/kg and the Tmax [38] was 1.5 h. It also gave an EC50 [39] of over 30 µM.
Compound `CN1CCN(c2nc3ccccc3cc2C(=O)Nc2cccc(S(N)(=O)=O)c2)CC1` has an EC50 [5] of 20 µM.
Work on `NS(=O)(=O)c1cccc(NC(=O)c2cc(C(F)(F)F)cnc2N2CCCC3(CC3)C2)c1` yielded an EC50 [5] of 0.034 µM, a solubility [6] of 68 µM (≈ 30.9 µg/mL) and a half-life [7] of 0.72 h. It also gave a CL free [8] of 1800 mL/min/kg.
`NS(=O)(=O)c1cccc(NC(=O)c2cc(C(F)(F)F)cnc2N2CCCCCC2)c1` showed an EC50 [5] of 0.012 µM, a solubility [6] of 120 µM (≈ 53.1 µg/mL) and a half-life [7] of 0.62 h. For the same compound, the CL free [8] was 1800 mL/min/kg.
Compound `CN1CCN(c2nc3ccccc3nc2C(=O)Nc2cccc(S(N)(=O)=O)c2)CC1` has an EC50 [5] of over 30 µM.
Work on `NS(=O)(=O)c1cccc(NC(=O)c2cc(C(F)(F)F)cnc2N2CCCC2)c1` yielded an EC50 [5] of 2 µM and a solubility [6] of 160 µM (≈ 66.3 µg/mL).
`NS(=O)(=O)c1cccc(NC(=O)c2cc(C(F)(F)F)cnc2N2CCCC(F)(F)CC2)c1` gave a solubility [6] of 110 µM (≈ 52.6 µg/mL), a half-life [7] of 1.1 h and a CL free [8] of 600 mL/min/kg.
For `NS(=O)(=O)c1cccc(NC(=O)c2ccc(C(F)(F)F)nc2N2CCCCC2)c1`, the EC50 [5] was 0.29 µM, the solubility [6] was 91 µM (≈ 39 µg/mL) and the half-life [7] was 0.89 h. It also gave a CL free [8] of 1300 mL/min/kg.
